Tested on: human prostate cancer cell line LNCaP xenografts
Assay: LNCaP xenograft growth inhibition in nude mice
Format: in vivo
Conditions: for TGI (Tumor Growth Inhibition): TGI=ΔT/ΔC×100%
Procedure: All the procedures related to animal handling, care, and the treatment in the study were performed following guidelines approved by an Institutional Animal Care and Use Committee (IACUC) of Crown Bioscience, Inc. (Santa Clara, Calif., USA, a contract research organization we hired) based on the guidance of the Association for Assessment and Accreditation of Laboratory Animal Care (AAALAC). Animals were checked for any effects of tumor growth and drug treatment on normal behavior such as mobility, food and water consumption, body weight gain/loss (gross body weights were measured twice weekly), eye/hair matting, and any other abnormal effect. Death and observed clinical signs were recorded on the basis of the number of animals within each group. Individual animals with a tumor volume exceeding 3,000 mm^3 or animals of a group with a mean tumor volume exceeding 2,000 mm^3 were euthanized. In addition, animals showing signs of severe distress and/or pain, dropping body weight more than 20% from that at the start of treatment, or losing the capability of accessing adequate food or water were humanely sacrificed.
The human prostate cancer cell line LNCaP (ATCC, American Type Culture Collection, Manassas, Va., USA) were maintained in vitro as monolayer culture in RPMI-1640 medium supplemented with 10% fetal bovine serum (FBS), 100 U/ml penicillin, 100 μg/ml streptomycin, and 2 mM L-glutamine at 37° C. in an atmosphere of 5% CO2 in air. The tumor cells were routinely subcultured twice a week. The cells growing in an exponential phase were harvested and counted for tumor inoculation.
Each mouse was inoculated subcutaneously at the right flank with the LNCaP cells (1×10^7) in 0.1 ml of PBS for tumor development. When a mean tumor volume reached around 150 mm^3, the tumor-bearing mice were divided into homogeneous blocks based on their tumor volumes followed by a randomization of mice in each block into treatment groups (thus minimizing variations in tumor response to treatments due to the differential in initial mean tumor volumes). Each treatment group was consisted of 8 tumor-bearing mice. Vehicle (DMSO) or ITE in the vehicle at specified doses were administered to the mice by either i.p. (intraperitoneal) or p.o. (oral) injection once or twice daily for 28 continuous days as indicated.
Tumor volume was measured twice weekly in two dimensions using a caliper and the volume was calculated with a formula of: V=0.5 a×b^2, where a and b are the long and short diameter (in mm) of a tumor, respectively. The tumor volume was then used for calculations of both TGI (Tumor Growth Inhibition) and TGD (Tumor Growth Delay). The TGI was determined by: TGI=ΔT/ΔC×100%, where ΔT was a difference between the mean tumor volume at a specified day of observation and that at the day treatment starts (day 1) for a drug treated group whereas ΔC was the same difference measured for the control group. The TGD was calculated as: TGD=T−C, where T was the time (in days) required for tumors in a drug treated group to reach a predetermined mean tumor volume and C the time (in days) in the control group to reach the same volume. A tumor weight was derived by equating 1,000 mm^3 in volume to 1,000 mg in weight. A net body weight was then derived by subtracting a tumor weight from a corresponding gross body weight with the tumor.
Summary statistics, including mean and the standard error of the mean (SEM), are provided for the tumor volume of each group at each time point. Statistical analysis of difference in tumor volume among groups was conducted on a data set either at the best therapeutic time point or at the final dosing day as indicated. The tumor volume data were log-transformed and evaluated using a one-way ANOVA followed by Tukey's test when significance was observed. All data were analyzed using SPSS 16.0 and p<0.05 was considered to be statistically significant.

For `COC(=O)c1csc(C(=O)c2c[nH]c3ccccc23)n1` [ITE, 2-(1′H-indole-3′-carbonyl)-thiazole-4-carboxylic acid methyl ester], the “TGD (Tumor Growth Delay)” value (20 mg/kg b.w. i.p. once daily, at a tumor volume of 1,000 mm^3) was 8 days, the “TGI (Tumor Growth Inhibition)” value (20 mg/kg b.w. i.p. once daily, day 28) was 64% and the “toxic response judged from body weight changes of tumor-bearing mice” value (0.1-40 mg/kg b.w. i.p. every 12 hr for 28 days) was “did not seem to provoke significant toxic response”. The “TGI (Tumor Growth Inhibition)” value (ITE 0.1 mg/kg b.w. i.p. every 12 hr for 28 days, DMSO, day 28) was 74%, the “TGI (Tumor Growth Inhibition)” value (ITE 1 mg/kg b.w. i.p. every 12 hr for 28 days, day 28) was 52% and the “TGD (Tumor Growth Delay)” value (ITE 1 mg/kg b.w. i.p. every 12 hr, at a tumor size of 600 mm^3) was 3 days. The “TGI (Tumor Growth Inhibition)” value (ITE 10 mg/kg b.w. i.p. every 12 hr for 28 days, day 28) was 31%, the “TGD (Tumor Growth Delay)” value (ITE 10 mg/kg b.w. i.p. every 12 hr, at a tumor size of 600 mm^3) was 10 days and the “TGI (Tumor Growth Inhibition)” value (ITE 20 mg/kg b.w. i.p. every 12 hr for 28 days, day 28) was 26%. The “TGD (Tumor Growth Delay)” value (ITE 20 mg/kg b.w. i.p. every 12 hr, at a tumor size of 600 mm^3) was 12 days, the “TGI (Tumor Growth Inhibition)” value (ITE 40 mg/kg b.w. i.p. every 12 hr for 28 days, day 28) was 22% and the “TGD (Tumor Growth Delay)” value (ITE 40 mg/kg b.w. i.p. every 12 hr, at a tumor size of 600 mm^3) was 16 days. For the same compound, the “TGI (Tumor Growth Inhibition)” value (ITE 80 mg/kg p.o. daily, day 24) was 46%, the “TGI (Tumor Growth Inhibition)” value (ITE 80 mg/kg twice daily i.p., day 28) was 12% and the “TGI (Tumor Growth Inhibition)” value (ITE 80 mg/kg twice daily i.p., the last day) was 16%.
